In US20110105389A1 (priority 2009, published 2011):

Key:
male ob/ob mice = assay: Subchronic oral administration in male ob/ob mice (7, 15 and 28 day protocols), Method B15; type: in vivo, mouse
Description: B15. Effects of Subchronic Administration of Compounds of the Invention in Male ob/ob Mice
The objective of this study is to determine the subchronic effects of test compounds on body weight change, food and water consumption, as well as glucose homeostasis and insulin levels in male ob/ob mice upon oral administration for up to 7 days. The male ob/ob mouse was selected as a type 2 diabetes (T2DM) and genetically defined obesity model which is sensitive to the effect of different insulin sensitizers in acute as well as in chronic settings.
A similar study in this model was conducted to determine the acute and subchronic effects of test compounds on body weight change, food and water consumption, glucose homeostasis, insulin and glucagon levels, as well as lipid profile and brain penetration upon oral administration to the male ob/ob mice for up to 28 days.
Mice were individually housed in rodent cages with soft wood bedding on the bottom and equipped with water bottles. All cages were clearly labeled with a cage card indicating study number, group, animal number and dose level. Each animal was uniquely identified by an animal number marked on their tail with indelible ink. The animal number was designated the day the animals arrive at the animal facility. The animal room environment was controlled (targeted ranges: temperature 22±2° C.; relative humidity 50±10%; light/dark cycle: 12 hours light, 12 hours dark, lights on from 06:00 AM to 06:00 PM). A regular rodent diet (Charles River 5075 rodent chow, Purina Mills, Canada) was provided to the animals ad libitum. Municipal tap water was provided to the animals ad libitum via water bottles. Fresh tap water was provided after water bottle weighing. An acclimation period of approximately 7 days for all groups was allowed between the receipt of animals and the start of treatment to accustom the […] to the laboratory environment. On experimental Day −7, animals were stratified according to body weight and glycemia into an appropriate number of groups of 5 or 10 animals and two groups of 5 animals.
Test compounds were administered, as a solution, orally, at the doses indicated. The dose volume will be 5 mL/kg/day. Groups were dosed once daily around 4:00 p.m. As positive controls, rosiglitazone (Avandia®), an approved anti-diabetic drug of the thiazolidinediones family (ppar gamma agonist) which has been specifically reported to normalize glycemia in the ob/ob mouse model (Liu et al., J. Med. Chem.; 46: 2093-2103, 2003) was used. The CB1 receptor antagonist rimonabant (Accomplia®) was reported to reduce body weight and food intake in different models of Type 2 diabetes and obesity and was also employed (Rasmussen and Huskinson Behavioral Pharmacol. 2008, 19, 735-742,; Bobo, G.; et al. Hepathology 2007, 46, 122-129; Di Marzo; et al., Nature 2001, 410, 822-825).
For, the study animals, the data collected from study Day −7 to Day 8 were reported. Body weights were recorded for all animals on Day −7 prior to initiation of dosing, at the time of group assignment and daily throughout the study period (Day 1-8). Food and water intake was Measured 4 hrs post-dosing, 2 hrs after the beginning of the dark cycle (around 8:00 p.m.) on Day 1 and 7 (Subset A) as well as on Day 2 and 8 (Subset B) and then daily in 24 h intervals from Day 3 through Day 8. On Day 1 (Subset A) and Day 2 (Subset B), blood was sampled from 3 animals/group from Groups 2 through 4 into EDTA coated tubes (K2-EDTA microtainer tubes, Becton Dickinson) from a tail vein (˜100 μL) 4 hrs post-dose for PK analysis. Blood was centrifuged at 4000 rpm for 10 min. at 4° C., and the resulting plasma transferred into non-coated tubes and stored at −80° C. until analysis. The same procedures were repeated on Day 7 (Subset A) and Day 8 (Subset B) 24 hrs post-dose. […]

CYP2D6 = CYP2D6 (Homo sapiens, UniProt P10635); assay: Cytochrome P450 inhibition, Method B6; details: read-out: IC50 CYP 2D6; Table 4a; dextromethorphan used as substrate
Chain of CYP2D6 (P10635 whole entry): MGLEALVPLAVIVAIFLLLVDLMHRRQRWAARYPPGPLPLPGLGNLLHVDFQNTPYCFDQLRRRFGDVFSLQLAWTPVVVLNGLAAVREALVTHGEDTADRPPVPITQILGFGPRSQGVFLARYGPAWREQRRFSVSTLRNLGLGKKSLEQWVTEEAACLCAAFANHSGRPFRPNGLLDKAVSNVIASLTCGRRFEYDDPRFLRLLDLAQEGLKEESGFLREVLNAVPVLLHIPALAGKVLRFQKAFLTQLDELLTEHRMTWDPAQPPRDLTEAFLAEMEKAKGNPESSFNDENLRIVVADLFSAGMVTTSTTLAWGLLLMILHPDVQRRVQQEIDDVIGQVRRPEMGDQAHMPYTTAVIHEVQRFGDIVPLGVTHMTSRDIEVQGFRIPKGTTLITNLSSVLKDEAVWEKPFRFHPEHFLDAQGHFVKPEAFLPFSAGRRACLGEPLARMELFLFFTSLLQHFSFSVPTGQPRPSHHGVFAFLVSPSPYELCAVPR

[1] = vs vehicle control mice, FIG. 13

For `CC(C)[C@@H]1NCCOc2ccccc2C#CCNC(=O)[C@@H](Cc2ccccc2)NC(=O)[C@H](C(C)O)N(C)C1=O` (stereo partly drawn) [Compound 1712], the “acute cumulative food intake” value (male ob/ob mice; over a 2 hr period, fasted animals, vs vehicle control, FIG. 11) was “significantly reduced”.
`CC(C)[C@@H]1NCC2CCc3cccc(c3O2)CCCNC(=O)[C@@H](Cc2ccccc2)NC(=O)[C@H](C(C)O)N(C)C1=O` (stereo partly drawn) [Compound 1777] gave an IC50 (CYP2D6) of 11.8 µM.
`CC(C)[C@@H]1NCCOc2ccccc2C2CCC(C2)NC(=O)[C@@H](Cc2c[nH]c3ccccc23)NC(=O)[C@H](C(C)O)N(C)C1=O` (stereo partly drawn) [Compound 1843] showed an IC50 (CYP2D6) of 7.7 µM.
With `CC(C)[C@@H]1NCCOc2ccccc2C2CCC(C2)NC(=O)[C@@H](Cc2ccccc2)NC(=O)[C@H](C(C)O)N(C)C1=O` (stereo partly drawn) [Compound 1848] the “blood glucose levels during oral glucose tolerance test” value (male ob/ob mice; 75 mg/kg, vs vehicle control) was “significant decrease”, the “reduction in cumulative food intake” value (male ob/ob mice; po, 75 mg/kg, 336 h) was 11.9% and the insulin sensitivity (male ob/ob mice; treated ob/ob mice) was “improvement”. For the same compound, the “free fatty acids (FFAs)” value (male ob/ob mice; [1]) was “significantly reduced”, the glucagon (male ob/ob mice; [1]) was “significantly reduced” and the insulin (male ob/ob mice; [1]) was “significantly reduced”. The non-fasting glucose (male ob/ob mice; [1]) was “significantly reduced”, the “total cholesterol level significantly reduced” value (male ob/ob mice; [1]) was “not” and the “triglycerides level significantly reduced” value (male ob/ob mice; [1]) was “not”.
